Reference: patent publication US20230241024A1, “METHODS OF TREATING METABOLIC DISORDERS” (Sunovion Pharmaceuticals Inc., priority 2021, published 2023)

Key:
[1] = system: lean, fasted, male CD1 mice; assay: Acute intravenous glucose tolerance test (IVGTT), plasma glucose and insulin (Example 6)
Description: (§1) A vehicle control group was included in the study design. […] Blood samples were taken at various timepoints during the test and subsequently assessed for plasma glucose and insulin content.
Via a lateral tail vein, a baseline blood sample (B1; 30 µl) was taken from all animals prior to vehicle or drug treatment. Five minutes later, mice were dosed with Treatment 1 detailed by the oral route (see above table; approx. 30 minutes pre-glucose). Thirty minutes later, mice were dosed with Treatment 2 by the intravenous route (by a lateral tail vein). […] A B2 sample (30 µl) was also taken briefly before glucose administration. All blood samples (from the tail vein) were collected into lithium heparinised tubes (Sarstedt Microvette CB300LH) and plasma separated by centrifugation to produce a single aliquot of plasma which was frozen (approx. -80° C.) and subsequently assayed for glucose (Thermoelectron infinity glucose reagent, TR15421) and insulin (Alpco Ultrasensitive mouse insulin ELISA) as single replicates.

[2] = system: lean male C57BL/6J mice; assay: Acute oral glucose tolerance test (OGTT), plasma glucose and insulin, lean mice (Example 1.1); set-up: Plasma glucose AUC Mean: dose or concentration left out as unconfirmed
Description: as §1
Mice were weighed on the day of arrival (Thursday) and singly housed upon arrival and throughout the study in polypropylene cages on a normal phase 12 h light-dark cycle (lights on 07:00). Cages contained sawdust, red acrylic house, red acrylic tunnel, sizzlenest and nestlet at a temperature of 21±4° C. Upon arrival, mice were weighed and given wet mash to aid recovery from transport. Mice were weighed the following day and on the Monday of the following week.
Experimental Procedures: Animals underwent a three-day handling phase, which commenced five days after arrival. On the final day of handling the mice were dosed orally once with vehicle. At the start of the handling phase, animals were weighed (to the nearest 0.1 g using an electronic top-pan balance) and allocated into 6 weight-matched treatment groups by a Statistician. On the day of baseline dosing, mice were fasted for approximately 16 hours to a timed schedule, beginning at 16:45. The mice were placed into individual clean cages with access to water, but not food. The following morning the mice were moved to a separate room which was maintained with the same environmental conditions and underwent an OGTT. […] Five minutes later, the mice in groups A, C, D, E and F were dosed by the oral route (30 minutes pre-glucose). […] All mice were given an oral glucose load of D-glucose at a dose of 2.0 g/kg (400 mg/mL solution; dose volume 5 mL/kg). Further blood samples (30 µl) were taken 3 minutes before glucose administration (B2) and at 15 (20 µl), 30 (20 µl), 60 (25 µl) and 120 (25 µl) minutes post glucose administration. All blood samples were collected into lithium heparinised tubes (Sarstedt Microvette CB300LH) and plasma separated by centrifugation to produce a single aliquot of plasma which was frozen (-80° C.) and subsequently assayed for glucose (Thermoelectron infinity glucose reagent, TR15421) and insulin (Alpco mouse ultrasensitive insulin kit 80 INSMSU-E10).
Upon completion of the OGTT, all animals were humanely killed by a Schedule 1 method (exposure to a rising concentration of CO2 with confirmation of death by cervical dislocation). A terminal blood sample was taken from groups A, C, D, E and F only by cardiac puncture into a lithium heparin-coated tube (Sarstedt CB300LH) and the plasma separated by centrifugation.

[3] = system: male db/db mice; assay: Acute oral glucose tolerance test (OGTT), plasma glucose and insulin, diabetic db/db mice (Example 1.2)
Description: as §1
Mice were weighed on the day of arrival (Thursday) and group housed in polypropylene cages on a normal phase 12 h light-dark cycle (lights on 07:00). Cages contained sawdust, red house, red tunnel, Sizzlenest and nestlet at a temperature of 24±2° C. Upon arrival, mice were weighed and given wet mash to aid recovery from transport. Mice were weighed the following day and on the Monday of the following week.
Experimental Procedures: Animals underwent a three-day handling phase, which commenced five days after arrival. On the final day of handling the mice were dosed orally once with vehicle. At the start of the handling phase, animals were weighed (to the nearest 0.1 g using an electronic top-pan balance) and allocated into 6, weight matched treatment groups by a Statistician. On the day of baseline dosing, mice were fasted for approximately 16 hours to a timed schedule, beginning at 16:45. The mice were placed into individual clean cages with access to water, but not food. The following morning the mice were moved to a separate room which was maintained with the same environmental conditions and underwent an OGTT. […] Five minutes later, the mice in groups A, C, D, E and F were dosed by the oral route (30 minutes pre-glucose). […] All mice were given an oral glucose load of D-glucose at a dose of 2.0 g/kg (400 mg/mL solution; dose volume 5 mL/kg). Further blood samples (30 µl) were taken 3 minutes before glucose administration (B2) and at 15 (20 µl), 30 (20 µl), 60 (25 µl) and 120 (25 µl) minutes post glucose administration. All blood samples were collected into lithium heparinised tubes (Sarstedt Microvette CB300LH) and plasma separated by centrifugation to produce a single aliquot of plasma which was frozen (-80° C.) and subsequently assayed for glucose (Thermoelectron infinity glucose reagent, TR15421) and insulin (Alpco mouse ultrasensitive insulin kit 80 INSMSU-E10).
Upon completion of the OGTT, all animals were humanely killed by a Schedule 1 method (exposure to a rising concentration of CO2 with confirmation of death by cervical dislocation). A terminal blood sample was taken from groups A, C, D, E and F only by cardiac puncture into a lithium heparin-coated tube (Sarstedt CB300LH) and the plasma separated by centrifugation. A single plasma aliquot (approximately 100 µl) was stored frozen prior to shipment of the compound to Charles River Laboratories, USA.

[4] = 40 µg/kg iv group, Post-treatment baseline (B2)
[5] = 40 µg/kg iv with Glucose 1 g/kg
[6] = 40 µg/kg iv with Glucose 1 g/kg, 5 minutes
[7] = 40 µg/kg iv with Glucose 1 g/kg, 10 minutes
[8] = 40 µg/kg iv with Glucose 1 g/kg, 30 minutes
[9] = 40 µg/kg iv with Glucose 1 g/kg, 60 minutes
[10] = 15 minutes, Exendin-4 1 µg/kg ip
[11] = 30 minutes, Exendin-4 1 µg/kg ip
[12] = 60 minutes, Exendin-4 1 µg/kg ip
[13] = 120 minutes, Exendin-4 1 µg/kg ip
[14] = AUC above baseline (0-60 minutes), Exendin-4 1 µg/kg ip
[15] = AUC above baseline (0-120 minutes), Exendin-4 1 µg/kg ip
[16] = Area under curve (0-60 minutes), Exendin-4 1 µg/kg ip
[17] = Area under curve (0-120 minutes), Exendin-4 1 µg/kg ip
[18] = Area under curve (0-120 minutes), Exendin-4 ip
[19] = Post-treatment baseline (B2), Exendin-4 1 µg/kg ip
[20] = 15 minutes, Exendin-4 300 µg/kg ip
[21] = 30 minutes, Exendin-4 300 µg/kg ip
[22] = 60 minutes, Exendin-4 300 µg/kg ip
[23] = 120 minutes, Exendin-4 300 µg/kg ip
[24] = AUC above baseline (0-60 minutes), Exendin-4 300 µg/kg ip
[25] = AUC above baseline (0-120 minutes), Exendin-4 300 µg/kg ip
[26] = Area under curve (0-60 minutes), Exendin-4 300 µg/kg ip
[27] = Area under curve (0-60 minutes), Exendin-4 300 µpg/kg ip
[28] = Area under curve (0-120 minutes), Exendin-4 300 µg/kg ip
[29] = Area under curve (0–120 minutes), Exendin-4 300 µg/kg ip
[30] = Post-treatment baseline (B2), Exendin-4 300 µg/kg ip

Substance: Exendin-4: GLP 1 receptor agonist utilised as a positive control
- Plasma glucose % of vehicle [1, 4]: 98.6%
- Plasma glucose Mean [1, 4]: 9.30 mM
- Plasma insulin % of vehicle [1, 4]: 95.1%
- Plasma insulin Mean [1, 4]: 0.17 ng/mL
- Plasma glucose - AUC above baseline (AUCB2) (0-60 minutes), Mean [1, 5]: 3.22 mM·h
- Plasma glucose AUC (0-60 minutes), % of vehicle [1, 5]: 73.5%
- Plasma glucose AUC, Area under curve (0-60 minutes), Mean [1, 5]: 12.65 mM·h
- Plasma glucose AUCB2 (0-60 minutes), Difference from vehicle [1, 5]: -4.43 mM·h
- Plasma insulin - AUC above baseline (AUCB2) (0-60 minutes), Mean [1, 5]: 0.73 ng·h/mL
- Plasma insulin - Area under curve AUC (0-60 minutes), Mean [1, 5]: 0.93 ng·h/mL
- Plasma insulin AUC (0-60 minutes), % of vehicle [1, 5]: 218.8%
- Plasma insulin AUCB2 (0-60 minutes), Difference from vehicle [1, 5]: 0.48 ng·h/mL
- Plasma glucose % of vehicle [1, 6]: 92.6%
- Plasma glucose Mean [1, 6]: 28.43 mM
- Plasma insulin % of vehicle [1, 6]: 347.3%
- Plasma insulin Mean [1, 6]: 1.99 ng/mL
- Plasma glucose % of vehicle [1, 7]: 89.4%
- Plasma glucose Mean [1, 7]: 22.15 mM
- Plasma insulin % of vehicle [1, 7]: 327.2%
- Plasma insulin Mean [1, 7]: 1.84 ng/mL
- Plasma glucose % of vehicle [1, 8]: 59.0%
- Plasma glucose Mean [1, 8]: 8.35 mM
- Plasma insulin % of vehicle [1, 8]: 149.8%
- Plasma insulin Mean [1, 8]: 0.57 ng/mL
- Plasma glucose % of vehicle [1, 9]: 57.8%
- Plasma glucose Mean [1, 9]: 6.36 mM
- Plasma insulin % of vehicle [1, 9]: 117.2%
- Plasma insulin Mean [1, 9]: 0.42 ng/mL
- plasma insulin vs vehicle ([1]; Exendin-4 40 µg/kg iv, 5, 10 and 30 minutes post glucose load): statistically significant increase
- Plasma insulin peak ([1]; Exendin-4 40 µg/kg iv, 5 minutes post glucose load): 1.99 ng/mL
- Plasma glucose % of vehicle [2, 10]: 65.9%
- Plasma glucose Mean [2, 10]: 15.13 mM
- Plasma insulin % of vehicle [2, 10]: 154.4%
- Plasma insulin Mean [2, 10]: 1.92 ng/mL
- Plasma glucose % of vehicle [2, 11]: 53.3%
- Plasma glucose Mean [2, 11]: 12.81 mM
- Plasma insulin % of vehicle [2, 11]: 110.3%
- Plasma insulin Mean [2, 11]: 1.10 ng/mL
- Plasma glucose % of vehicle [2, 12]: 58.4%
- Plasma glucose Mean [2, 12]: 8.56 mM
- Plasma insulin % of vehicle [2, 12]: 73.1%
- Plasma insulin Mean [2, 12]: 0.37 ng/mL
- Plasma glucose % of vehicle [2, 13]: 74.8%
- Plasma glucose Mean [2, 13]: 7.46 mM
- Plasma insulin % of vehicle [2, 13]: 63.5%
- Plasma insulin Mean [2, 13]: 0.27 ng/mL
- Plasma glucose AUCB2 Difference from vehicle [2, 14]: -8.32 mM·h
- Plasma glucose AUCB2 Mean [2, 14]: 1.49 mM·h
- Plasma insulin AUC above baseline Difference from vehicle [2, 14]: 0.02 ng·h/mL
- Plasma insulin AUC above baseline Mean [2, 14]: 0.72 ng·h/mL
- Plasma glucose AUCB2 Difference from vehicle [2, 15]: -12.99 mM·h
- Plasma glucose AUCB2 Mean [2, 15]: -0.58 mM·h
- Plasma insulin AUC above baseline Difference from vehicle [2, 15]: -0.28 ng·h/mL
- Plasma insulin AUC above baseline Mean [2, 15]: 0.76 ng·h/mL
- Plasma glucose AUC % of vehicle [2, 16]: 61.5%
- Plasma insulin AUC % of vehicle [2, 16]: 125.7%
- Plasma insulin AUC Mean [2, 16]: 1.06 ng·h/mL
- Plasma insulin AUC % of vehicle [2, 17]: 110.9%
- Plasma insulin AUC Mean [2, 17]: 1.48 ng·h/mL
- Plasma glucose AUC % of vehicle [2, 18]: 63.6%
- Plasma glucose AUC Mean [2, 18]: 20.44 mM·h
- plasma glucose vs vehicle ([2]; Exendin-4 1 µg/kg ip 10 minutes before glucose load, all timepoints post-glucose): statistically significant (p<0.01) reduction
- Plasma glucose % of vehicle [2, 19]: 111.4%
- Plasma glucose Mean [2, 19]: 10.66 mM
- Plasma insulin % of vehicle [2, 19]: 221.2%
- Plasma insulin Mean [2, 19]: 0.34 ng/mL
- Plasma glucose % of vehicle [3, 20]: 39.5%
- Plasma glucose Mean [3, 20]: 20.37 mM
- Plasma insulin % of vehicle [3, 20]: 176.4%
- Plasma insulin Mean [3, 20]: 11.33 ng/mL
- Plasma glucose % of vehicle [3, 21]: 34.7%
- Plasma glucose Mean [3, 21]: 19.07 mM
- Plasma insulin % of vehicle [3, 21]: 228.5%
- Plasma insulin Mean [3, 21]: 9.42 ng/mL
- Plasma glucose % of vehicle [3, 22]: 32.9%
- Plasma glucose Mean [3, 22]: 12.91 mM
- Plasma insulin % of vehicle [3, 22]: 210.5%
- Plasma insulin Mean [3, 22]: 8.95 ng/mL
- Plasma glucose % of vehicle [3, 23]: 52.4%
- Plasma glucose Mean [3, 23]: 10.71 mM
- Plasma insulin % of vehicle [3, 23]: 238.7%
- Plasma insulin Mean [3, 23]: 9.87 ng/mL
- Plasma glucose AUC above baseline Difference from vehicle [3, 24]: -28.49 mM·h
- Plasma glucose AUC above baseline Mean [3, 24]: -1.09 mM·h
- Plasma insulin AUC above baseline Difference from vehicle [3, 24]: -0.08 ng·h/mL
- Plasma insulin AUC above baseline Mean [3, 24]: 0.89 ng·h/mL
- Plasma glucose AUC above baseline Difference from vehicle [3, 25]: -47.99 mM·h
- Plasma glucose AUC above baseline Mean [3, 25]: -8.04 mM·h
- Plasma insulin AUC above baseline Difference from vehicle [3, 25]: -0.35 ng·h/mL
- Plasma insulin AUC above baseline Mean [3, 25]: 0.98 ng·h/mL
- Plasma insulin AUC % of vehicle [3, 26]: 213.0%
- Plasma insulin AUC Mean [3, 26]: 9.93 ng·h/mL
- Plasma glucose AUC % of vehicle [3, 27]: 38.8%
- Plasma glucose AUC Mean [3, 27]: 17.77 mM·h
- Plasma insulin AUC % of vehicle [3, 28]: 223.1%
- Plasma insulin AUC Mean [3, 28]: 19.34 ng·h/mL
- Plasma glucose AUC % of vehicle [3, 29]: 39.6%
- Plasma glucose AUC Mean [3, 29]: 30.22 mM·h
- plasma glucose vs vehicle ([3]; Exendin-4 300 µg/kg ip, all timepoints post-glucose): statistically significant (p<0.001) reduction
- Plasma glucose Mean [3, 30]: 17.81 mM
- Plasma insulin % of vehicle [3, 30]: 227.2%
- Plasma insulin Mean [3, 30]: 8.99 ng/mL
